From patent US20030144360A1, “Composition and method for modulating BAR/FXR receptor activity” (Allergan Sales, Inc., priority 2001, published 2003)

Tests used:
Gal-L-RXR = molecular target: T1, Gal-L-RXR (Homo sapiens, UniProt P19793); test: Gal-L-RXR fusion with Gal 4 reporter (MH100×4) in CV-1 cells; format: cell-based; conditions: 5 μM
T1 construct: expressed in transfected cells; host or cells: CV-1
T1 sequence (P19793 203-462): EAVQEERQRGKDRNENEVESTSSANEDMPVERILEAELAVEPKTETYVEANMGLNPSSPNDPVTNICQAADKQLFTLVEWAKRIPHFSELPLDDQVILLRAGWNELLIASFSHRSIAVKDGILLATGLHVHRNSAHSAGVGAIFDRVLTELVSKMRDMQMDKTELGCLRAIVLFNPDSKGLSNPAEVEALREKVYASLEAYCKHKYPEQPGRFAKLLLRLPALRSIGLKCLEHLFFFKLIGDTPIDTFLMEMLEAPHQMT
Description: The nucleic acid regions encoding the following full-length proteins were cloned into a CMV expression vector.
For GAL-L-RXR, the plasmid nucleic acids encoded amino acids Glu203 to Thr462 of human RXRα (SEQ ID NO: 4) fused to the GAL4 sequences. The junction between the carboxyl terminal section of GAL4 and the amino terminal portion of the RXR LBD had the following structure:
CV-1 African Green Monkey cells were grown in Dulbecco's Modified Eagle's medium supplemented with 10% resin-charcoal stripped fetal bovine serum (FBS), 50 U/ml penicillin G and 50 μg/ml streptomycin sulfate (DMEM-FBS) at 37° C. in 5% CO2. […]
(§1) The harvested cells were assayed for the presence of luciferase activity. […] Luciferase activity was measured by reaction of the cell lysates with luciferin in a reaction buffer comprising: 20 mM tricine, 1.07 mM Mg(CO3)4-Mg(OH)2-5H2O, 2.67 mM MgSO4.7H2O, 0.1 mM EDTA, 0.5 mM Sodium luciferin, 0.15 mg/ml Coenzyme A, 5 mM DTT, and 0.5 mM adenosine triphosphate (ATP). Resulting chemiluminescence was measured in a luminometer. […]
(§2) The transfected cells were then treated with the indicated ligands for 40 hours. Activity was measured using luciferase expression in the cotransfection assay described above. […] Thus, Gal-L-RAR or Gal-L-RXR fusions were transfected into CV-1 cells with a Gal 4 reporter (MH100×4) and the effect of different ligands was evaluated.

BAR:RXR heterodimers = molecular target: T2, BAR:RXR heterodimers (UniProt P19793+Q62735); test: Co-activator (GRIP1) gel shift displacement assay, BAR:RXR heterodimer; format: binding
T2 construct: nucleic acid regions encoding the following full-length proteins were cloned into a CMV expression vector; made in house; host or cells: receptors: in vitro translation; GST-GRIP1: E. coli
T2 sequence (Q62735 1-469): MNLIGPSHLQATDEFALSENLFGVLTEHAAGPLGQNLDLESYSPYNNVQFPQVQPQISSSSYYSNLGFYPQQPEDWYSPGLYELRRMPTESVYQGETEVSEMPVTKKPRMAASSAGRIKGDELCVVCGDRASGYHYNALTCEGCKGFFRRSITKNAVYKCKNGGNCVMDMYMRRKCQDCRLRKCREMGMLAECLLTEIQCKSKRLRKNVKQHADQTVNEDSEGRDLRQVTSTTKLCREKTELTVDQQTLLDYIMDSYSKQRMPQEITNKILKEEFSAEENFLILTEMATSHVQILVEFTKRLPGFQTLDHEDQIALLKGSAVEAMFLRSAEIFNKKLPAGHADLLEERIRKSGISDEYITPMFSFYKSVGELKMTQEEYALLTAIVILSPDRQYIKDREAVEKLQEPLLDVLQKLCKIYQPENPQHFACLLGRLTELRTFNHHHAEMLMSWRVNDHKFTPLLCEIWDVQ
T2 sequence (P19793 1-462): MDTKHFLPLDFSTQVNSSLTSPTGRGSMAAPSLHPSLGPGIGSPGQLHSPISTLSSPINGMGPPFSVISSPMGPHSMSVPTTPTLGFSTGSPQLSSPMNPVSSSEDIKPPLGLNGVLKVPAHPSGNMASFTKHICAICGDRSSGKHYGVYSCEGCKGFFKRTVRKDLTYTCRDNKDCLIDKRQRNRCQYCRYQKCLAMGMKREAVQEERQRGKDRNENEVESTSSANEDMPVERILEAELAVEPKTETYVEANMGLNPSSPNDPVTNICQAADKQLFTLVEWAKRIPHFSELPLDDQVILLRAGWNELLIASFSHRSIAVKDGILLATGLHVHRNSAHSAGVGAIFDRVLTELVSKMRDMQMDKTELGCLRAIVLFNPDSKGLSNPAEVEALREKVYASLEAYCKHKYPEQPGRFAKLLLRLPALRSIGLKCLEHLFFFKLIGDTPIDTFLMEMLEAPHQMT
Description: Coactivators, which bind agonist-activated nuclear receptors including, without limitation, RAR and RXR, function to assist the activated nuclear receptor exert its activity as a transcription factor. Characterized co-activators include CBP, p300, RIP140, SRC-1, ACTR, TIF2 (also called GRIP 1) and TIFI. In most cases coactivator will not bind the receptor in the absence of an agonist, moreover, receptor antagonists will often block coactivator binding, either directly or through the recruitment of a corepressor. Coactivator recruitment assays are therefore a valuable method for directly visualizing associative changes to a receptor caused by the addition of a prospective ligand.
GRIP 1 was expressed as a fusion protein with glutathione-S-transferase, an enzyme which selectively binds glutathione and can thus be used as an affinity reagent. See e.g., U.S. Pat. No. 5,654,176. The GST-GRIP1 fusion protein was expressed in E. coli and purified on glutathione-Sepharose columns. In vitro translated BAR/FXR\RXR (0.6-1.2 μl each) and GST-GRIP 1 (5 μg) were incubated for 30 min at room temperature with 100,000 cpm of the E. coli DNA polymerase Klenow fragment-labeled probes in 10 mM Tris (pH 8.0), 50 mM KCl, 6% glycerol, 0.05% NP-40, 1 mM DTT, 12.5 ng/μl poly dI-dC, and the indicated ligands. Complexes were electrophoresed through 5% polyacrylamide gel in […] (45 mM Tris-base, 45 mM boric acid, 1 mM EDTA) at room temperature. Oligonucleotide probes were made to identify specific receptor dimers; an optimized DR-1 (direct repeat 1; a nucleotide sequence motif to which RXR will bind) probe (5′-[…]) (SEQ ID NO: 12) was used for RXR homodimers and the IR-1 sequence of the IBABP promoter, to which the BAR/RXR heterodimer binds, was used for BAR/RXR heterodimers.
We next tested the ability of AGN34 to displace the GRIP-1 co-activator from BAR. […] Competition experiments using the BAR/RXRm heterodimer binds yielded the same results as obtained using the BAR/RXR heterodimer. (FIG. 4D).

[1] = tested on: AR, mPXR, hPXR, ERα, CARβ, LXRα, PPARα, PPARβ, PPARδ, VDR and TRβ; test: Activation of other RXR heterodimers / nuclear receptors (transfection assay); format: cell-based
Description: CV-1 African Green Monkey cells were grown in Dulbecco's Modified Eagle's medium supplemented with 10% resin-charcoal stripped fetal bovine serum (FBS), 50 U/ml penicillin G and 50 μg/ml streptomycin sulfate (DMEM-FBS) at 37° C. in 5% CO2. One day prior to transfection, cells were plated to 50-80% confluence using phenol red-free DMEM-FBS. Cells were transiently transfected by lipofection as described in Forman et al., 81 Cell 687 (1995). Liposomes (N-[1-(2,3-dioleoyloxy)propyl]-N,N,N-ammonium methyl sulfate, sold by Boehringer Mannheim under the name DOTAP) were formed according to the manufacturer's instructions. […]
as §1, §2

Row | SMILES | activation of RXR (Gal-L-RXR) | formation of BAR:RXR:GRIP1 complex (BAR:RXR heterodimers; 0.75 μM) | effect on other RXR heterodimers containing nuclear receptors [1] | doses for full displacement of co-activator, LG 268 versus RXR:BAR-CDCA complexes (BAR:RXR heterodimers) | dissociation of BAR:RXR:GRIP1 complex (BAR:RXR heterodimers; 0.75 μM AGN 29 as agonist, increasing concentrations of AGN 34) | displacement of co-activator (GRIP1) (BAR:RXR heterodimers; heterodimers in which LG 268 was added)
1 | Cc1cc2c(cc1/C(=C/c1ccc(C(=O)O)cc1)[Si](C)(C)C)C(C)(C)CCC2(C)C [AGN 29, (Z)-4-[2-(3,5,5,8,8-Pentamethy1-5,6,7,8-tetrahydronaphthalen-2-yl)-2-(trimethylsilyl)vinyl]benzoic Acid] | retained some ability to activate RXR | form a complex | no effect | – | – | –
2 | CCCC/C(=C\c1ccc(C(=O)O)cc1)c1ccc2c(c1)C(C)(C)CCC2(C)C [AGN 31, 4-[2-(5,5,8,8-Tetramethyl-5,6,7,8-tetrahydronaphthalen-2-yl)hex-1-enyl]benzoic Acid] | retained some ability to activate RXR | – | no effect | – | – | –
3 | CCCCCCOc1c(\C(C)=C/C=C/C(C)=C/C(=O)O)cc(C(C)C)cc1C(C)C [AGN 34, (2E, 4E, 6Z)-7-(2-Hexyloxy-3,5-diisopropylphenyl)-3-methylocta-2,4,6-trienoic Acid] | – | – | – | Much lower doses | progressive dissociation of that complex | fully displaces
